Data as given in the NIST ThermoML archive (doi:10.1016/j.fluid.2012.07.032).
Numbers after ± are expanded uncertainties.

Tests used:
[1] = refractive index (Na D-line) (dimensionless); conditions: 101.33 kPa, Liquid, Standard Abbe refractometry
[2] = 101.33 kPa, Liquid, Vibrating tube method

| refractive index ([1]; 288.2 K) | refractive index ([1]; 303.2 K) | refractive index ([1]; 318.2 K) | mass density ([2]; 288.2 K) | mass density ([2]; 303.2 K) | mass density ([2]; 318.2 K) | SMILES |
| --- | --- | --- | --- | --- | --- | --- |
| 1.3749 ± 0.0004 | 1.3672 ± 0.0004 | 1.3594 ± 0.0004 | 906.89 ± 0.11 kg/m3 | 888.196 ± 0.12 kg/m3 | 869.522 ± 0.12 kg/m3 | CCOC(C)=O [ethyl acetate] |
| 1.3866 ± 0.0004 | 1.3792 ± 0.0004 | 1.3717 ± 0.0004 | 894.325 ± 0.082 kg/m3 | 877.529 ± 0.089 kg/m3 | 860.512 ± 0.095 kg/m3 | CCCOC(C)=O [propyl ethanoate] |
| 1.3334 ± 0.0004 | 1.3319 ± 0.0004 | 1.3298 ± 0.0004 | – | – | – | O [water] |
| 1.4013 ± 0.0004 | 1.3952 ± 0.0004 | 1.3892 ± 0.0004 | 813.82 ± 0.14 kg/m3 | 802.407 ± 0.14 kg/m3 | 790.724 ± 0.15 kg/m3 | CCCCO [butan-1-ol] |

| SMILES | refractive index ([1]; 288.2 K) | refractive index ([1]; 303.2 K) | refractive index ([1]; 318.2 K) | mass density ([2]; 288.2 K) | mass density ([2]; 303.2 K) | mass density ([2]; 318.2 K) |
| --- | --- | --- | --- | --- | --- | --- |
| O=Cc1ccco1 [2-furaldehyde] | 1.528 ± 0.0004 | 1.5206 ± 0.0004 | 1.5133 ± 0.0004 | 1165.24 ± 0.37 kg/m3 | 1149.77 ± 0.35 kg/m3 | 1133.83 ± 0.34 kg/m3 |
